Reference: patent US11071731B2, “Allosteric modulators of the mu opioid receptor” (Chiromics, LLC, priority 2017, dated 2021)

Tests used:
mu opioid receptor (MOR) [1] = target: T1, mu opioid receptor (MOR) (Homo sapiens, UniProt P35372); assay: Hit Hunter cAMP signaling assay (adenylyl cyclase inhibition), PAM mode with EC20 endomorphin-1; format: cell-based; details: for EC50 / cAMP Max Resp.: adenylyl cyclase inhibition; for EC50: read-out: cAMP EC50; for cAMP Max. Resp.: maximal response for adenylyl cyclase inhibition
mu opioid receptor (MOR) [2] = target: T1, mu opioid receptor (MOR); assay: PathHunter β-arrestin recruitment assay, PAM mode with EC20 endomorphin-1; format: cell-based; details: for β-arr Max. Resp.: maximal response for β-arrestin recruitment; for EC50 / β-arrestin Max Response: β-arrestin recruitment
Description: The effects of MOR PAMs and MOR SAMs on receptor activity were assayed using the PathHunter enzyme complementation assay technology (DiscoveRx, CA). A description of the technology employed is as follows.
Beta-Arrestin Pathway: The PathHunter β-arrestin assay monitors the activation of a GPCR in a homogenous, non-imaging assay format using a technology developed by DiscoveRx called Enzyme Fragment Complementation (EFC) with beta-galactosidase (β-Gal) as the functional reporter. […] EA is fused to β-Arrestin and ED is fused to the GPCR of interest. When the GPCR is activated and β-arrestin is recruited to the receptor, ED and EA complementation occurs, restoring β-gal activity, which is measured using chemiluminescent PathHunter Detection Reagents.
In this manner an EC50 for each test compound, and percent maximal response for each test compound, were determined for both the β-arrestin and cAMP pathways. Though the pharmacological effects of a given signal bias can be hypothesized (Raehal et al. (2011) Pharmacol. Rev. 63:1001-1019), it is not possible to know with certainty which bias ratio will be most advantageous in a clinical setting. […] Kenakin 2015a, supra. The information associated with the compounds detailed herein is the first large data set available for the prediction of ligand bias for an MOR PAM.

[3] = activity switching by MOR PAMs, read-out: β-arrestin EC50

T1 sequence (P35372 whole entry): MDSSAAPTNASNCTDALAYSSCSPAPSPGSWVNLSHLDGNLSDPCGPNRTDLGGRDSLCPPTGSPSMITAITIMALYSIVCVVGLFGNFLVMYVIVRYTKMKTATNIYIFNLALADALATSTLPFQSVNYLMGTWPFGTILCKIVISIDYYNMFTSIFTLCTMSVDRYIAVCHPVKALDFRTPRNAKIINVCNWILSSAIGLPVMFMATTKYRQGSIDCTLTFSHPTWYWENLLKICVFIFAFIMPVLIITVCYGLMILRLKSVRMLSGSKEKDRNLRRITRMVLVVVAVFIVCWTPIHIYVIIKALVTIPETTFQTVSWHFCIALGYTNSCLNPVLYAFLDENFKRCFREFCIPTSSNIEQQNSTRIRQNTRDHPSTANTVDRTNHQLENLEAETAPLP

Row | SMILES | EC50 (mu opioid receptor (MOR) [1]) [nM] | cAMP Max. Resp. (mu opioid receptor (MOR) [1]) | β-arr Max. Resp. (mu opioid receptor (MOR) [2]) | EC50 (mu opioid receptor (MOR) [2]; read-out: β-arr. EC50) [nM] | cAMP Max Resp. (mu opioid receptor (MOR) [1]; activity switching by MOR PAMs) | EC50 (mu opioid receptor (MOR) [1]; activity switching by MOR PAMs) [nM] | β-arrestin Max Response (mu opioid receptor (MOR) [2]; activity switching by MOR PAMs) | EC50 (mu opioid receptor (MOR) [2]; [3]) [nM]
1 | CS(=O)(=O)N1CCN(c2nc(Cl)ncc2F)C(c2cc(F)cc(C(F)(F)F)c2)C1 (racemic) [Compound 309] | > 2100 | D (D represents a maximal response of < 40%) | E (E represents a maximal response of 40-60%) | > 2100 | – | – | – | –
2 | O=S(=O)(c1ccc(Cl)cc1)N1CCCCC1c1cccc(OC(F)(F)F)n1 (racemic) [compound 48] | > 2100 | E (E represents a maximal response of 40-60%) | F (F represents a maximal response of > 60%) | > 2100 | – | – | – | –
3 | N#Cc1ccc(C2CCCCN2S(=O)(=O)c2ccc(Cl)cc2)cc1C(F)(F)F (racemic) [compound 49] | > 2100 | F (F represents a maximal response of > 60%) | F (F represents a maximal response of > 60%) | > 2100 | – | – | – | –
4 | O=S(=O)(c1ccc(Cl)cc1)N1CCCCC1c1cc(F)cc(C(F)(F)F)c1 (racemic) [compound 50] | 700 to 2100 | D (D represents a maximal response of < 40%) | F (F represents a maximal response of > 60%) | > 2100 | – | – | – | –
5 | COc1ccc(C2CCCCN2S(=O)(=O)c2ccc(Cl)cc2)cc1Cl (racemic) [compound 51] | 700 to 2100 | F (F represents a maximal response of > 60%) | F (F represents a maximal response of > 60%) | > 2100 | – | – | – | –
6 | O=S(=O)(c1ccc(Cl)cc1)N1CCCCC1c1ccc(F)c(Cl)c1 (racemic) [compound 52] | < 700 | F (F represents a maximal response of > 60%) | F (F represents a maximal response of > 60%) | < 700 | – | – | – | –
7 | O=S(=O)(c1ccc(Cl)cc1)N1CCCCC1c1ccc(F)nc1 (racemic) [compound 53] | > 2100 | F (F represents a maximal response of > 60%) | F (F represents a maximal response of > 60%) | > 2100 | – | – | – | –
8 | O=S(=O)(c1ccc(Cl)cc1)N1CCCCC1c1ccc(F)cn1 (racemic) [compound 54] | > 2100 | E (E represents a maximal response of 40-60%) | F (F represents a maximal response of > 60%) | > 2100 | – | – | – | –
9 | O=S(=O)(c1ccc(Cl)cc1)N1CCCCC1c1ccc(F)c(C(F)(F)F)c1 (racemic) [compound 55] | 700 to 2100 | E (E represents a maximal response of 40-60%) | F (F represents a maximal response of > 60%) | > 2100 | D (D represents a maximal response of < 40%) | > 2100 | F (F represents a maximal response of >60%) | > 2100
10 | O=S(=O)(c1ccc(Cl)cc1)N1CCCCC1c1ccnc(C(F)(F)F)c1 (racemic) [compound 57] | > 2100 | E (E represents a maximal response of 40-60%) | F (F represents a maximal response of > 60%) | > 2100 | E (E represents a maximal response of 40-60%) | > 2100 | F (F represents a maximal response of >60%) | > 2100
11 | N#Cc1cc(C2CCCCN2S(=O)(=O)c2ccc(Cl)cc2)ccc1F (racemic) [compound 58] | > 2100 | D (D represents a maximal response of < 40%) | F (F represents a maximal response of > 60%) | > 2100 | – | – | – | –
12 | O=S(=O)(c1ccc(Cl)cc1)N1CCCCC1c1ccnc(F)c1 (racemic) [compound 59] | > 2100 | F (F represents a maximal response of > 60%) | F (F represents a maximal response of > 60%) | > 2100 | – | – | – | –
13 | O=S(=O)(c1ccc(Cl)cc1)N1CCCCC1c1cccc(Cl)c1 (racemic) [compound 61] | > 2100 | E (E represents a maximal response of 40-60%) | F (F represents a maximal response of > 60%) | > 2100 | – | – | – | –
14 | O=S(=O)(c1ccc(Cl)cc1)N1CCCCC1c1cc(F)ccn1 (racemic) [compound 62] | > 2100 | D (D represents a maximal response of < 40%) | F (F represents a maximal response of > 60%) | > 2100 | – | – | – | –
15 | O=S(=O)(c1ccc(Cl)cc1)N1CCCCC1c1ccc(Cl)c(C(F)(F)F)c1 (racemic) [compound 64] | 700 to 2100 | D (D represents a maximal response of < 40%) | F (F represents a maximal response of > 60%) | 700 to 2100 | – | – | – | –
16 | O=S(=O)(c1ccc(Cl)cc1)N1CCCCC1c1ccc(C(F)(F)F)cn1 (racemic) [compound 65] | > 2100 | E (E represents a maximal response of 40-60%) | F (F represents a maximal response of > 60%) | > 2100 | – | – | – | –
17 | O=S(=O)(c1ccc(Cl)cc1)N1CCCCC1c1ccc2c(c1)CCO2 (racemic) [compound 66] | > 2100 | E (E represents a maximal response of 40-60%) | F (F represents a maximal response of > 60%) | > 2100 | – | – | – | –
18 | Cc1cc(C2CCCCN2S(=O)(=O)c2ccc(Cl)cc2)ccc1F (racemic) [compound 67] | 700 to 2100 | E (E represents a maximal response of 40-60%) | F (F represents a maximal response of > 60%) | > 2100 | – | – | – | –
19 | COc1ccc(C2CCCCN2S(=O)(=O)c2ccc(Cl)cc2)cc1C (racemic) [compound 68] | 700 to 2100 | E (E represents a maximal response of 40-60%) | F (F represents a maximal response of > 60%) | > 2100 | – | – | – | –
20 | Cc1ccc(C2CCCCN2S(=O)(=O)c2ccc(Cl)cc2)cc1Br (racemic) [compound 70] | > 2100 | E (E represents a maximal response of 40-60%) | F (F represents a maximal response of > 60%) | > 2100 | – | – | – | –
21 | O=S(=O)(c1ccc(Cl)cc1)N1CCCCC1c1ccc(Br)c(F)c1 (racemic) [compound 71] | > 2100 | D (D represents a maximal response of < 40%) | F (F represents a maximal response of > 60%) | > 2100 | D (D represents a maximal response of < 40%) | > 2100 | F (F represents a maximal response of >60%) | > 2100
22 | O=S(=O)(c1ccc(Cl)cc1)N1CCCCC1c1cc(F)cc(C(F)(F)F)c1 (racemic) [compound 72] | < 700 | D (D represents a maximal response of < 40%) | F (F represents a maximal response of > 60%) | 700 to 2100 | D (D represents a maximal response of < 40%) | < 700 | F (F represents a maximal response of >60%) | 700 to 2100
23 | O=S(=O)(c1ccc(Cl)cc1)N1CCCCC1c1nccc(C(F)(F)F)n1 (racemic) [compound 73] | > 2100 | D (D represents a maximal response of < 40%) | F (F represents a maximal response of > 60%) | > 2100 | D (D represents a maximal response of < 40%) | > 2100 | F (F represents a maximal response of >60%) | > 2100
24 | O=S(=O)(c1ccc(Cl)cc1)N1CCCCC1c1ccc(Cl)c(Br)c1 (racemic) [compound 74] | > 2100 | E (E represents a maximal response of 40-60%) | F (F represents a maximal response of > 60%) | > 2100 | – | – | – | –
25 | O=S(=O)(c1ccc(Cl)cc1)N1CCCCC1c1ccc(F)c(F)c1 (racemic) [compound 75] | < 700 | E (E represents a maximal response of 40-60%) | F (F represents a maximal response of > 60%) | 700 to 2100 | – | – | – | –
26 | O=S(=O)(c1ccc(Cl)cc1)N1CCCCC1c1ccc(Cl)cc1 (racemic) [compound 76] | > 2100 | D (D represents a maximal response of < 40%) | F (F represents a maximal response of > 60%) | > 2100 | – | – | – | –
27 | Cc1cc(C2CCCCN2S(=O)(=O)c2ccc(Cl)cc2)ccn1 (racemic) [compound 77] | > 2100 | D (D represents a maximal response of < 40%) | F (F represents a maximal response of > 60%) | > 2100 | – | – | – | –
28 | O=S(=O)(c1ccc(Cl)cc1)N1CCCCC1c1ccc(F)cc1 (racemic) [compound 78] | < 700 | E (E represents a maximal response of 40-60%) | F (F represents a maximal response of > 60%) | 700 to 2100 | – | – | – | –
